The source of these data is patent US20240247048A1 (EMORY UNIVERSITY, priority 2021, published 2024).

The test system of assay [1] is orthotopic KPC-Luc tumors. Briefly: orthotopic KPC-Luc pancreatic tumor model. Particulars: FIG. 21b. In kind it is in vivo, mouse. The source says: KPC.Luc cells were orthotopically implanted in the tail of the pancreas of C57BL/6 mice and treated with ANT008 and/or anti-PD-1 with n=9, 10, 8 and 11 in scrambled+IgG, ANT008+IgG, scrambled+anti-PD-1 and ANT008+anti-PD-1, respectively. (FIG. 21A) Schematic showing orthotopic implantation of KPC.Luc cells and treatment strategy with ANT008 and/or anti-PD-1. (FIG. 21B) Waterfall plot showing % change in tumor flux on day 22 relative to day 7 prior to start of treatment. (FIG. 21C) Total flux as measured by IVIS bioluminescent imaging in the different treatment groups. Isoflurane was used for anesthesia for bioluminescent imaging. Median flux represented as dashed gray line (----). Cross symbol (+) represents mice that were euthanized before day 25 due to ulceration of the tumor and circle symbol (∘) represent mouse that were imaged on day 26 via MRI imaging shown in FIG. 30. (FIG. 21D) Bar graph showing weight of pancreas on day 25 when the mice were euthanized. ‘Star’ shaped (⋆) data points indicate tumor free mice and dotted horizontal line (----) represents the average weight of healthy pancreas from naïve mice. […] P values in FIG. 21D were calculated using student ANOVA followed by Dunnett's post hoc test (comparing each treatment group with Scram+IgG). […]

Assay [2] relates to phospho-CREB downstream of VPAC1/2 receptor. Description: phosphorylation of CREB in activated human T cells. In kind it is cell-based. The settings on record: 6 h, 3 uM, compared with control scrambled peptide; FIG. 17e. The procedure: (FIG. 17A) Representative western blot and (FIG. 17B) quantified expression levels of VPAC1 and VPAC2; and (FIG. 17C) PD-1 and CTLA-4 in lysates of healthy human T cells expanded with plate bound human anti-CD3 antibodies for 0, 3, 6, 12, 24, 48 and 72 hours. Lower molecular weight band of 25kD shown for VPAC2-specific expression as confirmed from our VPAC2 KO model. Percentage of (FIG. 17D) CD69 expression at 24 h post activation (FIG. 17E) phosphorylation of CREB (phospho-CREB) downstream of VPAC1/2 receptor at 6 h and in CD4+ and CD8+ T cells normalized to levels in control with no peptide. PDAC patient peripheral blood T cells were expanded for 9 days with plate bound human anti-CD3 antibodies+/−ANT008 and the (FIG. 17F) percentage of Tregs was quantified using the (FIG. 17G) gating strategy shown. Percentage of PD1+, Tim-3+, Lag3+, PD1+Tim-3+, PD1+Lag3+ and PD1+Tim-3+Lag-3+(triple positive) in (FIG. 17H) CD4+ and (FIG. 17I) CD8+ subsets is shown. Statistical differences in FIGS. 17D and 17E were calculated via repeated measures ANOVA followed by Dunnett's post-test where each sample in the treatment group was compared to the matched sample in the control group (scrambled treated). Statistical differences in FIGS. 17F, 17H, and 17I were calculated via paired student T-test. Error bars show mean±SEM. […], **p<0.01 and ***p<0.001. […]

In the case of KPRRPYTDNYTRLRKQMAVKKYLNLILN [ANT008], the “mice in which tumors regressed, number of mice of group” value in assay [1] is 4/10. For the same sequence, the “mice in which tumors regressed” value in assay [1] (tumor flux day 22 relative to day 7) is given as 40%. As for KPRRPYTSDYTRLRKQMAVKKYLNLILN [ANT308], the “activation-induced phosphorylation of CREB” value in assay [2] is “more potently inhibited”.
